# Assays:
# CYP27A1 = assay: Real-time RT PCR CYP27A1 mRNA, normal epidermal keratinocytes; assay type: cell-based, human; details: 10^−8 M
# Experimental: (§1) RNA was extracted using an Absolutely RNA RT-PCR Miniprep Kit (Stratagene, La Jolla, Calif.). Real time PCR and reverse transcription products were purchased from Applied Biosystems, Foster City, Calif. Reverse transcription was performed using Taqman® Reverse Transcription Reagents. The following PCR products were used: cytokeratin 14: Hs00265033_m1, involucrin: Hs00846307_s1, CYP27A1: Hs00168003_ml, CYP27B1: Hs00168017_ml, 18SrRNA: Hs99999901_s1. The reaction was performed with Taqman® Universal PCR Master Mix; data were collected on an ABI Prism 7700 and analyzed on Sequence Detector 1.9.1. Specific gene amounts were related to 18SrRNA by comparative CT method.
# HaCaT keratinocytes [1] = assay: Colony forming (clonogenicity) assay in HaCaT keratinocytes; assay type: cell-based, human; details: 10 days
# Experimental: HaCaT and human adult epidermal keratinocytes were cultured and DNA synthesis experiments were performed as described previously (26). Cells were plated in 6-well plates at a density of 20 cells/cm^2 in DMEM (Cellgro, Herndon Va.) containing 5% charcoal-treated fetal bovine serum (Hyclone, Logan, Utah), 1% antibiotic solution (PSA, Sigma, St. Louis, […].) and vehicle or secosteroids. Cells were incubated in 37° C. for 10 days with media being changed every 72 hr. Cells were fixed with 4% paraformaldehyde in PBS overnight, stained with 0.5% crystal violet in PBS for 15 min, rinsed and air-dried. The number and size of the colonies were measured using an ARTEK counter 880 (Dynex Technologies Inc., Chantilly, Va.). Colony forming units were calculated as follows: number of colonies (size>0.5 mm) was divided by the number of cells plated and multiplied by 100.
# [2] = system: human dermal fibroblast line; assay: TGF-b1 induced hyaluronan synthesis by dermal fibroblasts; assay type: cell-based
# Excerpt: There were found no significant differences in fibroblast numbers per well and no significant differences in trypan blue exclusion between control wells vs those with secosteroids range 95-100% (data not shown).
# involucrin = assay: Real-time RT PCR involucrin mRNA, normal human epidermal keratinocytes; assay type: cell-based; details: 10^−8 M
# Experimental: as §1
# CYP27B1 = assay: Real-time RT PCR CYP27B1 mRNA, normal epidermal keratinocytes; assay type: cell-based, human; details: 10^−8 M
# Experimental: as §1
# HaCaT keratinocytes [3] = assay: [3H]-thymidine DNA synthesis in HaCaT keratinocytes; assay type: cell-based, human
# Procedure, shortened: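 HaCaT cells in DMEM with 5% charcoal-treated FBS received vehicle (ethanol) or secosteroids for 48 hours, with [3H]-thymidine at 1 μCi/mL for the final 12 hours. Incorporated radioactivity from trypsin-harvested cells on glass fiber filters was counted by beta counter.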
# VDRE = assay: VDRE-Luc reporter (with siRNA) in HaCaT keratinocytes; assay type: cell-based, human; details: 24 h
# Experimental: HaCaT keratinocytes were transfected with VDRE-Luc (gift from Dr. That Chen (27) and with scrambled or VDR siRNA (Dharmacon, Inc., Lafayette, Mo., on-Target plus smart pool human VDR L-003448-00, on-Target plus siControl non-targeting pool D-001810-10-05) using Lipofectamine Plus (Invitrogen, Carlsbad, Calif.) in DMEM medium. PhRL-TK (expresses Renilla luciferase) served as a normalization control; Promega, Madison, Wis.). After transfection, cells were incubated for 24 hours in DMEM with 5% FBS. Cells were then transferred to fresh media containing the compounds to be tested or vehicle (ethanol) and incubated for 24 hours. Levels of VDR and beta-actin 24 h after transfection were assessed with Western blot (VDR(D-6) antibody, sc-13133, 1:400, Santa Cruz, Inc., Santa Cruz, Calif.) performed as described previously (30.).
# Construct CYP24-Luc and VDRE-Luc constructs were a generous gift from Dr. Tai Cheng, Ph.D. (Boston University Medical Campus, Core Lab Director). It was originally developed by Vaisanen et al. (27). PLuc and NFκB-Luc construct was described previously (28-29). huVDR construct was a generous gift from Dr. D. Bikle. HaCaT keratinocytes were transfected with NFκB-Luc, CYP-24-Luc, VDRE-Luc and hVDR constructs using Lipofectamine Plus (Invitrogen, Carlsbad, Calif.) in DMEM medium with firefly luciferase reporter gene plasmid and with phRL-TK.
compound,measurement,setting,value
"C=C1/C(=C\C=C2/CCC[C@]3(C)[C@@H]([C@H](C)CCCC(C)(C)O)CC[C@@H]23)C[C@@H](O)C[C@@H]1O [1α,25-dihydroxycholecalciferol, (5Z,7E)-9,10-secocholesta-5,7,10(19)-triene-1α,3β,25-triol, reference compound]",inhibition of CYP27A1 expression,CYP27A1; 24 h,~2.9 fold
same,inhibition at 0.01 µM,"HaCaT keratinocytes [1]; Homo sapiens, HaCaT, 240 h, 10^−8 M, read-out: inhibition of colony formation",64%
same,TGF-b1 induced hyaluronan synthesis,[2]; 10^−10 M,inhibited TGF-b1 induced hyaluronan synthesis
same,stimulation of involucrin mRNA,involucrin; 6 h,~3.1 fold
same,inhibition of CYP27B1 expression,CYP27B1; 1 h,~1.5 fold
"C=C1CC[C@H](O)C/C1=C/C=C1\CCC[C@]2(C)[C@@H](C(C)=O)CC[C@@H]12 [pD3, (5Z,7E)-3β-hydroxy-9,10-secopregna-5,7,10(19)-trien-20-one]",Hyaluronan CPM/Well (mean ± SEM) × 10^−5 FB,"[2]; hrTGF-b1 5 ng/ml, secosteroids at 10^−10M",135 ± 25 CPM/Well × 10^−5 FB
same,proliferation (DNA synthesis),"HaCaT keratinocytes [3]; HaCaT, 48 hr",inhibits proliferation
"C=C1CC[C@H](O)C/C1=C/C=C1\CCC[C@]2(C)[C@@H](C(C)(O)CC(O)CC(C)C)CC[C@@H]12 (stereo partly drawn) [20,23-dihydroxycholecalciferol, (5Z,7E)-9,10-secocholesta-5,7,10(19)-triene-3β,20,23-triol]",VDRE-Luc activity,"VDRE; HaCaT, 10 nM and 100 nM",Activation of VDRE
same,decrease in DNA synthesis,HaCaT keratinocytes [3]; 0.1 nM,30%
same,decrease in DNA synthesis,HaCaT keratinocytes [3]; 10 nM,approximately 50%
same,"keratinocyte proliferation compared with 1α,25-dihydroxycholecalciferol","HaCaT keratinocytes [3]; HaCaT, 48 h",inhibit keratinocyte proliferation more potently than the control compound
"C=C1CC[C@H](O)C/C1=C/C=C1\CCC[C@@]2(C)[C@H]1CC[C@@H]2[C@@](C)(O)CCCC(C)C [20(OH)D3, (5Z,7E)-9,10-secocholesta-5,7,10(19)-triene-3β,20-diol]",inhibition of CYP27A1 expression,CYP27A1; 24 h,~3.5 fold
same,inhibition of CYP27A1 expression,CYP27A1; 48 h,~2.6 fold
same,inhibition of colony formation,HaCaT keratinocytes [1]; 10^−7 M,58%
same,inhibition of colony formation,HaCaT keratinocytes [1]; 10^−8 M,36%
same,increase in VDRE-driven luciferase activity,"VDRE; 10 nM, scrambled siRNA",~3 fold
same,stimulation of involucrin mRNA,involucrin; 6 h,4.7 fold
same,stimulation of involucrin mRNA,involucrin; 24 h,1.8 fold
same,DNA synthesis ([3H]-thymidine assay),"HaCaT keratinocytes [3]; 48 h, 10^−8 and 10^−7 M",inhibited DNA synthesis
same,"keratinocyte proliferation compared with 1α,25-dihydroxycholecalciferol","HaCaT keratinocytes [3]; HaCaT, 48 h",inhibit keratinocyte proliferation more potently than the control compound
same,inhibition of CYP27B1 expression,CYP27B1; 1 h,~4 fold
same,inhibition of CYP27B1 expression,CYP27B1; 48 h,~2 fold
